Molecules are shown by their SMILES.

In the first test the target is Early growth response protein 1 (Homo sapiens) (UniProt P18146). Nature of the test: Disruption of EGR-1-DNA binding in TNF-alpha-stimulated human HaCaT cells assessed as decrease in IL-6 mRNA level in presence of TNF-alpha by RT-PCR analysis. The class given is cell-based. The settings on record: dose 10-20 µM.
Chain of Early growth response protein 1 (Homo sapiens) (P18146 whole entry, looked up): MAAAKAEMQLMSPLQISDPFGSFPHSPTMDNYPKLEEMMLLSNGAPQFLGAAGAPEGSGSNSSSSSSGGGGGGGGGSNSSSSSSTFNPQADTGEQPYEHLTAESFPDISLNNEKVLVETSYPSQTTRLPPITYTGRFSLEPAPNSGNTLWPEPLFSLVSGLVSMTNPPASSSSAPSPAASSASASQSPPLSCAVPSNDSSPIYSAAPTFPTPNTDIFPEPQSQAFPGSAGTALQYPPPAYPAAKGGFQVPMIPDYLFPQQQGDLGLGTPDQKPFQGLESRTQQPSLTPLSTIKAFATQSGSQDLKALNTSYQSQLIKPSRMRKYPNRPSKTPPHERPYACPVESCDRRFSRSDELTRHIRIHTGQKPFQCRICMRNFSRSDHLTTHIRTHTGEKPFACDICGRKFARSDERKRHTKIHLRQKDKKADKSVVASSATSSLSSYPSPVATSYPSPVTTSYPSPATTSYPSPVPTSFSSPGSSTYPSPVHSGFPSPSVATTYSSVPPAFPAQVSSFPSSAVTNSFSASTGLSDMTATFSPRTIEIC
As for `COc1ccc(NC(=S)N2N=C(c3ccc4ccccc4c3O)CC2c2c(OC)cc(OC)cc2OC)c(OC)c1` (racemic), the Activity result was “Dose-dependent-effect”.

The next test shares this target. Kind of test: Disruption of EGR-1-DNA binding in TNF-alpha-stimulated human HaCaT cells assessed as decrease in IL-31 mRNA level in presence of TNF-alpha by RT-PCR analysis. The class given is cell-based. The settings on record: dose 10-20 µM.
As to `COc1ccc(NC(=S)N2N=C(c3ccc4ccccc4c3O)CC2c2c(OC)cc(OC)cc2OC)c(OC)c1` (racemic), the Activity entry is “Dose-dependent-effect”.

The target is the same in another test. Nature of the test: Disruption of EGR-1-DNA binding in TNF-alpha-stimulated human HaCaT cells assessed as decrease in TSLP mRNA level in presence of TNF-alpha by RT-PCR analysis. The settings on record: dose 10-20 µM. The format is cell-based.
As to `COc1ccc(NC(=S)N2N=C(c3ccc4ccccc4c3O)CC2c2c(OC)cc(OC)cc2OC)c(OC)c1` (racemic), the Activity entry was “Dose-dependent-effect”.

A further test has the same target. Nature of the test: Disruption of EGR-1-DNA binding in human HaCaT cell nuclear extract at 50 uM in the presence of biotin-EBS oligonucleotide probe (5'-CAAAAAGGAGGAAGGTGAGGGAA-biotin-3') and poly(dI-dC) by EMSA analysis relative to control.
Conditions: not given
The format is subcellular. A general note: Mobility shift assays separate free from complexed probe on a gel.
Turning to `COc1ccccc1NC(=S)N1N=C(c2ccccc2O)CC1c1ccc(OC)c2ccccc12` (stereo not given), the Activity is 29.1%.
In the case of `COc1ccc(C2CC(c3ccc4ccccc4c3O)=NN2C(=S)Nc2ccccc2OC)c(OC)c1` (stereo not given), the Activity was found to be 46%.
On the same count and under the same terms, next, `COc1ccc(/C=C/c2cc(OC)cc(OC)c2-c2oc3ccc([N+](=O)[O-])cc3c(=O)c2O)cc1`: 36.5%.
Same read-out and setting: next, `COc1ccc(C2=NN(C(=S)Nc3ccccc3OC)C(c3ccc(OC)c4ccccc34)C2)c(O)c1` (stereo not given): 57.3%.
In the case of `COc1ccc(NC(=S)N2N=C(c3ccc4ccccc4c3O)CC2c2cccc(OC)c2OC)c(OC)c1` (stereo not given), the Activity stood at 67.8%.
On the same count and under the same terms, next, `COc1cccc(NC(=S)N2N=C(c3ccc(OC)cc3O)CC2c2ccc(OC)c3ccccc23)c1` (stereo not given): 56.4%; `COc1ccc(NC(=S)N2N=C(c3cc(OC)c(OC)cc3O)CC2c2ccc(OC)c3ccccc23)cc1` (stereo not given): 57.3%.
The same measure, in the same setting: next, `COc1cccc(NC(=S)N2N=C(c3ccc(OC)cc3O)CC2c2cccc3ccccc23)c1` (stereo not given): 32%; `COc1cccc(NC(=S)N2N=C(c3ccc4ccccc4c3O)CC2c2cc(OC)cc(OC)c2)c1` (stereo not given): 42.8%.
On the same count and under the same terms, next, `COc1cc(OC)cc(C2CC(c3ccc4ccccc4c3O)=NN2C(=S)Nc2cc(OC)c(OC)c(OC)c2)c1` (stereo not given): 67.5%.
Take `COc1cc(OC)c(C2CC(c3ccc4ccccc4c3O)=NN2C(=S)Nc2ccccc2)cc1OC` (stereo not given): the Activity was found to be 81.8%.
Consider `COc1ccc(NC(=S)N2N=C(c3ccc4ccccc4c3O)CC2c2c(OC)cc(OC)cc2OC)cc1` (stereo not given), for which the Activity was found to be 64.2%.
Still for that read-out and setting: next, `COc1ccc(NC(=S)N2N=C(c3ccc4ccccc4c3O)CC2c2c(OC)cc(OC)cc2OC)c(OC)c1` (racemic): 82.2%; `COc1ccc(NC(=S)N2N=C(c3ccc4ccccc4c3O)CC2c2ccc(OC)c(OC)c2OC)cc1` (stereo not given): 49.5%; `COc1ccc(NC(=S)N2N=C(c3ccc(OC)cc3O)CC2c2cccc3ccccc23)cc1` (stereo not given): 35.1%.
The same measure, in the same setting: next, `COc1cccc(NC(=S)N2N=C(c3ccc4ccccc4c3O)CC2c2cc(OC)c(OC)cc2OC)c1` (stereo not given): 55.5%; `COc1ccc(C2CC(c3ccc4ccccc4c3O)=NN2C(=S)Nc2ccc(OC)cc2OC)cc1` (stereo not given): 64.2%.
Still for that read-out and setting: next, `COc1ccc(NC(=S)N2N=C(c3ccc4ccccc4c3O)CC2c2ccc(OC)cc2OC)cc1` (stereo not given): 44.5%; `COc1ccccc1NC(=S)N1N=C(c2c(O)cccc2OC)CC1c1cccc2ccccc12` (stereo not given): 40.9%; `COc1ccccc1NC(=S)N1N=C(c2ccc3ccccc3c2O)CC1c1ccccc1OC` (stereo not given): 33.2%.
As for `COc1cc(O)c(C2=NN(C(=S)Nc3cc(OC)c(OC)c(OC)c3)C(c3ccc(OC)c4ccccc34)C2)cc1OC` (stereo not given), the Activity amounted to 59.1%.
With `COc1cccc(NC(=S)N2N=C(c3cc(OC)c(OC)cc3O)CC2c2cccc3ccccc23)c1` (stereo not given), the Activity was determined as 36.4%.
The same measure, in the same setting: next, `COc1cc(O)c(C2=NN(C(=S)Nc3ccccc3OC)C(c3ccc(OC)c4ccccc34)C2)c(OC)c1` (stereo not given): 70.7%; `COc1ccc(NC(=S)N2N=C(c3cc(OC)ccc3O)CC2c2ccc(OC)c3ccccc23)cc1` (stereo not given): 28%.
With `COc1cc(OC)cc(C2CC(c3ccc4ccccc4c3O)=NN2C(=S)Nc2ccccc2)c1` (stereo not given), the Activity turned out to be 59%.
On the same count and under the same terms, next, `COc1cccc(NC(=S)N2N=C(c3c(O)cc(OC)cc3OC)CC2c2ccc(OC)c3ccccc23)c1` (stereo not given): 56.7%.
Same read-out and setting: next, `COc1ccccc1NC(=S)N1N=C(c2ccc3ccccc3c2O)CC1c1ccc(OC)c(OC)c1OC` (stereo not given): 46.5%; `COc1cc(O)c(C2=NN(C(=S)Nc3cc(OC)c(OC)c(OC)c3)C(c3cccc4ccccc34)C2)c(OC)c1` (stereo not given): 38.2%.
The same measure, in the same setting: next, `COc1ccc(C2CC(c3ccccc3O)=NN2C(=S)Nc2ccccc2)c2ccccc12` (stereo not given): 22.7%; `COc1cc(NC(=S)N2N=C(c3ccc4ccccc4c3O)CC2c2cccc(OC)c2OC)cc(OC)c1OC` (stereo not given): 35.6%.
Consider `COc1ccccc1NC(=S)N1N=C(c2cc(OC)c(OC)cc2O)CC1c1cccc2ccccc12` (stereo not given), for which the Activity was found to be 53.3%.
For the molecule `COc1ccc(C2=NN(C(=S)Nc3cc(OC)c(OC)c(OC)c3)C(c3ccc(OC)c4ccccc34)C2)c(O)c1` (stereo not given), the Activity stood at 73.3%.
On the same count and under the same terms, next, `COc1ccc(NC(=S)N2N=C(c3cc(OC)c(OC)cc3O)CC2c2cccc3ccccc23)cc1` (stereo not given): 46.9%; `COc1ccc(O)c(C2=NN(C(=S)Nc3ccccc3OC)C(c3ccc(OC)c4ccccc34)C2)c1` (stereo not given): 21.8%; `COc1cccc(NC(=S)N2N=C(c3ccc4ccccc4c3O)CC2c2c(OC)cc(OC)cc2OC)c1` (stereo not given): 64.8%.
The same measure, in the same setting: next, `COc1ccc(NC(=S)N2N=C(c3ccc4ccccc4c3O)CC2c2cccc(OC)c2OC)cc1` (stereo not given): 27%.
On the same count and under the same terms, next, `COc1ccc(C2CC(c3ccc4ccccc4c3O)=NN2C(=S)Nc2cc(OC)c(OC)c(OO)c2)cc1` (stereo not given): 70.5%; `COc1cccc(C2CC(c3ccc4ccccc4c3O)=NN2C(=S)Nc2cc(OC)c(OC)c(OC)c2)c1` (stereo not given): 30.8%.
For `COc1ccc(C2CC(c3ccc4ccccc4c3O)=NN2C(=S)Nc2ccccc2)cc1` (stereo not given), the Activity is 52.8%.
Consider `COc1cc(NC(=S)N2N=C(c3c(O)cccc3OC)CC2c2ccc(OC)c3ccccc23)cc(OC)c1OC` (stereo not given), for which the Activity stood at 71.8%.
On the same count and under the same terms, next, `COc1ccc(C2CC(c3ccc4ccccc4c3O)=NN2C(=S)Nc2ccccc2)c(OC)c1OC` (stereo not given): 44%.
Still for that read-out and setting: next, `COc1cccc(NC(=S)N2N=C(c3c(O)cccc3OC)CC2c2cccc3ccccc23)c1` (stereo not given): 36.4%.
As to `COc1cccc(NC(=S)N2N=C(c3c(O)cc(OC)cc3OC)CC2c2cccc3ccccc23)c1` (stereo not given), the Activity was 53.3%.
For the molecule `COc1cccc(NC(=S)N2N=C(c3ccc4ccccc4c3O)CC2c2ccc(OC)c(OC)c2OC)c1` (stereo not given), the Activity was 38%.
The same measure, in the same setting: next, `COc1cccc(NC(=S)N2N=C(c3ccc4ccccc4c3O)CC2c2ccccc2OC)c1` (stereo not given): 44.8%.
Still for that read-out and setting: next, `COc1cccc(NC(=S)N2N=C(c3ccc4ccccc4c3O)CC2c2cccc(OC)c2)c1` (stereo not given): 16.5%.
As to `COc1ccc(NC(=S)N2N=C(c3c(O)cccc3OC)CC2c2cccc3ccccc23)cc1` (stereo not given), the Activity was found to be 54%.
Still for that read-out and setting: next, `COc1cc(NC(=S)N2N=C(c3c(O)cccc3OC)CC2c2cccc3ccccc23)cc(OC)c1OC` (stereo not given): 51.6%.
In the case of `COc1ccc(NC(=S)N2N=C(c3ccc4ccccc4c3O)CC2c2cc(OC)c(OC)cc2OC)c(OC)c1` (stereo not given), the Activity was 56.5%.
Consider `COc1ccc(NC(=S)N2N=C(c3c(O)ccc4ccccc34)CC2c2ccccc2OC)cc1` (stereo not given), for which the Activity amounted to 31.8%.
As to `COc1cc(OC)cc(C2CC(c3ccc4ccccc4c3O)=NN2C(=S)Nc2ccccc2OC)c1` (stereo not given), the Activity was found to be 40.8%.
For `COc1ccc(C2=NN(C(=S)Nc3ccccc3)C(c3cccc4ccccc34)C2)c(O)c1` (stereo not given), the Activity is 35.1%.
`COc1cc(O)c(C2=NN(C(=S)Nc3ccccc3)C(c3cccc4ccccc34)C2)cc1OC` (stereo not given): the Activity came to 53.6%.
On the same count and under the same terms, next, `COc1cc(O)c(C2=NN(C(=S)Nc3ccccc3OC)C(c3cccc4ccccc34)C2)c(OC)c1` (stereo not given): 71.3%.
For the molecule `COc1cccc(C2CC(c3ccc4ccccc4c3O)=NN2C(=S)Nc2ccc(OC)cc2OC)c1` (stereo not given), the Activity stood at 27%.
As to `COc1cccc(O)c1C1=NN(C(=S)Nc2ccccc2)C(c2ccc(OC)c3ccccc23)C1` (stereo not given), the Activity is 64%.
On the same count and under the same terms, next, `COc1ccccc1NC(=S)N1N=C(c2c(O)cccc2OC)CC1c1ccc(OC)c2ccccc12` (stereo not given): 67.3%; `COc1cccc(NC(=S)N2N=C(c3ccccc3O)CC2c2ccc(OC)c3ccccc23)c1` (stereo not given): 17.1%.
Regarding `COc1ccc(NC(=S)N2N=C(c3ccc4ccccc4c3O)CC2c2ccc(OC)c(OC)c2OC)c(OC)c1` (stereo not given), the Activity is 46.8%.
Still for that read-out and setting: next, `COc1cc(O)c(C2=NN(C(=S)Nc3cc(OC)c(OC)c(OC)c3)C(c3cccc4ccccc34)C2)cc1OC` (stereo not given): 42.4%; `COc1ccc(NC(=S)N2N=C(c3ccc4ccccc4c3O)CC2c2ccc(OC)cc2OC)c(OC)c1` (stereo not given): 60.2%; `COc1ccc(NC(=S)N2N=C(c3ccc4ccccc4c3O)CC2c2ccccc2OC)cc1` (stereo not given): 31.2%.
In the case of `COc1cccc(NC(=S)N2N=C(c3ccc4ccccc4c3O)CC2c2ccc(OC)cc2OC)c1` (stereo not given), the Activity is 48%.
Same read-out and setting: next, `COc1cc(O)c(C2=NN(C(=S)Nc3ccccc3)C(c3ccc(OC)c4ccccc34)C2)c(OC)c1` (stereo not given): 73.3%; `COc1ccc(NC(=S)N2N=C(c3c(O)cccc3OC)CC2c2ccc(OC)c3ccccc23)cc1` (stereo not given): 66.7%.
Still for that read-out and setting: next, `COc1ccccc1NC(=S)N1N=C(c2ccc3ccccc3c2O)CC1c1cc(OC)c(OC)cc1OC` (stereo not given): 68.8%; `COc1ccc(NC(=S)N2N=C(c3ccc4ccccc4c3O)CC2c2cc(OC)c(OC)cc2OC)cc1` (stereo not given): 69%.
Still for that read-out and setting: next, `COc1ccccc1NC(=S)N1N=C(c2c(O)ccc3ccccc23)CC1c1ccccc1OC` (stereo not given): 22.9%; `COc1ccc(NC(=S)N2N=C(c3ccc(OC)cc3O)CC2c2ccc(OC)c3ccccc23)cc1` (stereo not given): 74.4%; `COc1cccc(NC(=S)N2N=C(c3c(O)cccc3OC)CC2c2ccc(OC)c3ccccc23)c1` (stereo not given): 62.7%.

The target is the same in a further test. Kind of test: Disruption of EGR-1-DNA binding in TNF-alpha-stimulated human HaCaT cells assessed as decrease in CCL-2 mRNA level in presence of TNF-alpha by RT-PCR analysis. The format is cell-based. As to conditions: dose 10-20 µM.
Regarding `COc1ccc(NC(=S)N2N=C(c3ccc4ccccc4c3O)CC2c2c(OC)cc(OC)cc2OC)c(OC)c1` (racemic), the Activity result was “Dose-dependent-effect”.

The target is the same in another test. Kind of test: Disruption of EGR-1-DNA binding in TNF-alpha-stimulated human HaCaT cell nuclear extract assessed as reduction in DNA-protein complex formation pretreated for 1 hr followed by incubation of nuclear extract with biotin-EBS oligonucleotide probe (5'-CAAAAAGGAGGAAGGTGAGGGAA-biotin-3') by EMSA analysis. The format is subcellular. As to conditions: Nucleus, dose 10-20 µM.
For the molecule `COc1ccc(NC(=S)N2N=C(c3ccc4ccccc4c3O)CC2c2c(OC)cc(OC)cc2OC)c(OC)c1` (racemic), the Activity entry is “Dose-dependent-effect”.

These data come from ChEMBL document CHEMBL6103550, “Pyrazolo-1-carbothioamides as EGR-1-DNA binding disruptors” (Bioorg Med Chem Lett, 2025).
